Data as given in patent publication US9247759B2, “Identification of human T2R receptors that respond to bitter compounds that elicit the bitter taste in compositions, and the use thereof in assays to identify compounds that inhibit (block) bitter taste in compositions and use thereof” (SENOMYX, INC., priority 2007, dated 2016).
Like-named read-outs stand apart in the source and are kept apart here.

What was measured:
hT2R8 = hT2R8 (Homo sapiens (Human), UniProt Q9NYW2); assay: hT2R panel inhibition, transient HEK293 G16g44, agonist Andrographolide 0.5 mM; type: cell-based; conditions: HEK293, compound at 25 μM
Description: Specifically, in order to evaluate the inhibitory selectivity of the Compound C compound, this compound was tested against 22 human T2Rs which were deorphaned by Senomyx. These receptors and the bitter ligands that activate these human T2Rs are reported in earlier patent applications which are incorporated by reference herein. These 22 human T2Rs are hT2R1, 3, 4, 5, 7, 8, 9, 10, 13, 14, 16, 44, 51, 54, 55, 61, 63, 64, 65, 67, 71 and 75. The amino acid and nucleic acid sequences of all of these T2Rs may be found in these earlier patent applications. These human T2Rs were each individually transiently transfected into HEK293 cells that stably express the promiscuous G protein G16g44 and functional assays were effected using these receptors as disclosed in these same patent applications. […] The ligands were used at EC80 concentration levels. The list of bitter ligands utilized and the tested ligand concentrations are contained in Table 5 of this example.

hT2R7 = hT2R7 (Homo sapiens (Human), UniProt Q9NYW3); assay: hT2R panel inhibition, transient HEK293 G16g44, agonist Chloroquine pH6.5 10 mM; type: cell-based; conditions: HEK293, compound at 25 μM
Outline: (§1)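 Selectivity screen across 22 hT2Rs, each transfected singly into a G16g44-stable HEK293 background. Agonist dosed at EC80. Inhibition = reduced receptor response in presence of test compound.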

hT2R51 = hT2R51 (Homo sapiens (Human), UniProt P59533); assay: hT2R panel inhibition, transient HEK293 G16g44, agonist Prop 2.5 μM; type: cell-based; conditions: HEK293, compound at 25 μM
Outline: as §1

hT2R14 [1] = molecular target: T1, hT2R14 (Homo sapiens (Human), UniProt Q9NYV8); assay: hT2R panel inhibition, transient HEK293 G16g44, agonist Aristolochic Acid 2 μM; type: cell-based; conditions: HEK293, compound at 25 μM
Outline: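 Agonist challenge was at EC80, with 0.5 mM andrographolide on hT2R8 and 2 μM aristolochic acid on hT2R14. Inhibition was measured in functional assays in HEK293 cells that stably carry the promiscuous G protein G16g44 and were transiently transfected with the individual receptor.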

hT2R61 = hT2R61 (Homo sapiens (Human), UniProt P59537); assay: hT2R panel inhibition, transient HEK293 G16g44, agonist Aristolochic Acid 25 nM; type: cell-based; conditions: HEK293, compound at 25 μM
Outline: as §1

hT2R13 = hT2R13 (Homo sapiens (Human), UniProt Q9NYV9); assay: hT2R panel inhibition, transient HEK293 G16g44, agonist Oxyphenonium 1 mM; type: cell-based; conditions: HEK293, compound at 25 μM
Outline: as §1

hT2R5 = hT2R5 (Homo sapiens (Human), UniProt Q9NYW4); assay: hT2R panel inhibition, transient HEK293 G16g44, agonist Picoline 10 mM; type: cell-based; conditions: HEK293, compound at 25 μM
Outline: as §1

hT2R16 = hT2R16 (Homo sapiens (Human), UniProt Q9NYV7); assay: hT2R panel inhibition, transient HEK293 G16g44, agonist Salicin 1 mM; type: cell-based; conditions: HEK293, compound at 25 μM
Outline: as §1

hT2R75 = hT2R75 (Homo sapiens (Human), UniProt P59540); assay: hT2R panel inhibition, transient HEK293 G16g44, agonist Strychnine 1 μM; type: cell-based; conditions: HEK293, read-out: screening result against bitter receptor 75, compound at 25 μM; receptor activated to EC80 with the corresponding agonist
hT2R14 [2] = molecular target: T1, hT2R14; assay: hT2R14 antagonist high-throughput FLIPR assay, stable cell line with G16g44, agonist aristolochic acid; type: cell-based; conditions: read-out: IC50 on hT2R14 bitter receptor
Outline: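 Compounds were co-applied with 3 μM aristolochic acid, a dose set to reach 70-80% of maximal hT2R14 activation. Read-out was FLIPR fluorescence in a stable HEK293 line co-expressing hT2R14 and G16g44.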

hT2R9 = hT2R9 (Homo sapiens (Human), UniProt Q9NYW1); assay: hT2R panel inhibition, transient HEK293 G16g44, agonist Ofloxacin 1 mM; type: cell-based; conditions: HEK293, compound at 25 μM
Outline: as §1

hT2R4 = hT2R4 (Homo sapiens (Human), UniProt Q9NYW5); assay: hT2R panel inhibition, transient HEK293 G16g44, agonist Chloroquine pH6.5 5 mM; type: cell-based; conditions: HEK293, compound at 25 μM
Outline: as §1

hT2R71 = hT2R71 (Homo sapiens (Human), UniProt P59536); assay: hT2R panel inhibition, transient HEK293 G16g44, agonist Picric Acid 10 μM; type: cell-based; conditions: HEK293, compound at 25 μM
Outline: as §1

hT2R54 = assay: hT2R panel inhibition, transient HEK293 G16g44, agonist Ranitidine 5 mM; type: cell-based, human; conditions: compound at 25 μM
Outline: as §1

hT2R55 = assay: hT2R panel inhibition, transient HEK293 G16g44, agonist Cinchonine 150 μM; type: cell-based, human; conditions: compound at 25 μM
Outline: as §1

hT2R44 = assay: hT2R panel inhibition, transient HEK293 G16g44, agonist Denatonium 0.5 μM; type: cell-based, human; conditions: compound at 25 μM
Outline: as §1

hT2R65 = assay: hT2R panel inhibition, transient HEK293 G16g44, agonist Oleuropein 1 mM; type: cell-based, human; conditions: compound at 25 μM
Outline: as §1

hT2R63 = assay: hT2R panel inhibition, transient HEK293 G16g44, agonist Caffeine 1 mM or Andrographolide 100 μM; type: cell-based, human; conditions: compound at 25 μM
Outline: as §1

hT2R67 = assay: hT2R panel inhibition, transient HEK293 G16g44, agonist Andrographolide 5 μM; type: cell-based, human; conditions: compound at 25 μM
Outline: as §1

hT2R10 = hT2R10 (Homo sapiens (Human), UniProt Q9NYW0); assay: hT2R panel inhibition, transient HEK293 G16g44, agonist Strychnine 50 μM; type: cell-based
hT2R64 = hT2R64 (Homo sapiens (Human), UniProt P59538); assay: hT2R panel inhibition, transient HEK293 G16g44, agonist Aristolochic Acid 1 μM; type: cell-based; conditions: HEK293, compound at 25 μM
Outline: as §1

hT2R3 = hT2R3 (Homo sapiens (Human), UniProt Q9NYW6); assay: hT2R panel inhibition, transient HEK293 G16g44, agonist Chloroquine pH6.5 50 μM; type: cell-based; conditions: HEK293, compound at 25 μM
Outline: as §1

[3] = receptor activated to EC80 with the corresponding agonist, read-out: screening result against bitter receptor 8
[4] = receptor activated to EC80 with the corresponding agonist, read-out: screening result against bitter receptor 7
[5] = receptor activated to EC80 with the corresponding agonist, read-out: screening result against bitter receptor 51
[6] = receptor activated to EC80 with the corresponding agonist, read-out: screening result against bitter receptor 14
[7] = receptor activated to EC80 with the corresponding agonist, read-out: screening result against bitter receptor 61
[8] = receptor activated to EC80 with the corresponding agonist, read-out: screening result against bitter receptor 13
[9] = receptor activated to EC80 with the corresponding agonist, read-out: screening result against bitter receptor 5
[10] = receptor activated to EC80 with the corresponding agonist, read-out: screening result against bitter receptor 16
[11] = receptor activated to EC80 with the corresponding agonist, read-out: screening result against bitter receptor 9
[12] = receptor activated to EC80 with the corresponding agonist
[13] = receptor activated to EC80 with agonist

Sequence of hT2R51 (P59533 whole entry): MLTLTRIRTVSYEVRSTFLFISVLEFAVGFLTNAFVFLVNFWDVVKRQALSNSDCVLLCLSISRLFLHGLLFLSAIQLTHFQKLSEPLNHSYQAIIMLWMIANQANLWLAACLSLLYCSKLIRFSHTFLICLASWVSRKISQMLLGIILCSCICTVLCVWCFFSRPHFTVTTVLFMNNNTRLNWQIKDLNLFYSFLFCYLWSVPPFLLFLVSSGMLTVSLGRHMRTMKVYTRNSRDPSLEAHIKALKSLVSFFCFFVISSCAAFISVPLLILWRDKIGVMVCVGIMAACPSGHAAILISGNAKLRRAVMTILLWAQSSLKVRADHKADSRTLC
Sequence of hT2R5 (Q9NYW4 whole entry): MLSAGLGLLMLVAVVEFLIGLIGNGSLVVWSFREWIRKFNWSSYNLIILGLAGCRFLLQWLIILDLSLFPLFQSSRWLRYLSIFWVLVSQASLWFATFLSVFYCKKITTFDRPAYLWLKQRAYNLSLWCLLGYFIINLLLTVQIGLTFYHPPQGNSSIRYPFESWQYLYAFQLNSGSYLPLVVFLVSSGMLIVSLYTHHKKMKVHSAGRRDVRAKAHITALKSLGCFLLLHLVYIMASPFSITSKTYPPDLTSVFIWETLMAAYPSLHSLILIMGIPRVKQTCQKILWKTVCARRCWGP
Sequence of hT2R13 (Q9NYV9 whole entry): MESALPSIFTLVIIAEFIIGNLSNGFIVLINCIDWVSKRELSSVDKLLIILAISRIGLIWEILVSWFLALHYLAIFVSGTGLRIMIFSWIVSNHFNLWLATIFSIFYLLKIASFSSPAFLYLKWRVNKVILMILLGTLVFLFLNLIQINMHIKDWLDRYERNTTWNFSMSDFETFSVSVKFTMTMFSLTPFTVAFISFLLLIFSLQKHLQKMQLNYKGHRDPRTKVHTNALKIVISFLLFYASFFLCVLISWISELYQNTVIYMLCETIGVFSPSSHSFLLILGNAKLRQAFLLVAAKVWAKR
T1 sequence (Q9NYV8 whole entry): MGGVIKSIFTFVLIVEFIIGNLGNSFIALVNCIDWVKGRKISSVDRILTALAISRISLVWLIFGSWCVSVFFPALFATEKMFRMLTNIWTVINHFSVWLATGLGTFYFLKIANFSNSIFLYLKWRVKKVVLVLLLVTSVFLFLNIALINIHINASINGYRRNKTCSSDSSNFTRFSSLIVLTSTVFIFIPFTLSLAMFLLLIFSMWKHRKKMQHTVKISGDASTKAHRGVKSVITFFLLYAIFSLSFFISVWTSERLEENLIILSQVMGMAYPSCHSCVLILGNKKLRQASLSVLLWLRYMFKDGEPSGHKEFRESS
Sequence of hT2R7 (Q9NYW3 whole entry): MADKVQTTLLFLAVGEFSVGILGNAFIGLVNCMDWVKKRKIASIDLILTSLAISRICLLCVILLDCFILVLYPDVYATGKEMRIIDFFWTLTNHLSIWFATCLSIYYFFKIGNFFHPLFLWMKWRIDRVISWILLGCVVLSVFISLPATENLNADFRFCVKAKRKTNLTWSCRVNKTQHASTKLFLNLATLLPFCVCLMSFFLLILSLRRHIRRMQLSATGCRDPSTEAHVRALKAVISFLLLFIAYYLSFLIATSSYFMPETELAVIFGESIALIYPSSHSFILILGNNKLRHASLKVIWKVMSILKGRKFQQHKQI
Sequence of hT2R9 (Q9NYW1 whole entry): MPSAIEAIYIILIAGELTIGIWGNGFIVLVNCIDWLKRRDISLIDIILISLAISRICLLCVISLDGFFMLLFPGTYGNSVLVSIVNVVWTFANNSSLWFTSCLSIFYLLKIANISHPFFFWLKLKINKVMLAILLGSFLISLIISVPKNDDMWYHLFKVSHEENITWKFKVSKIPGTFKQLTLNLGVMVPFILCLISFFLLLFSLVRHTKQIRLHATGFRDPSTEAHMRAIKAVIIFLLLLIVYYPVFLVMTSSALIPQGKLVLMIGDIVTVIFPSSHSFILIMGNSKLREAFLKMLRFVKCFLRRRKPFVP
Sequence of hT2R16 (Q9NYV7 whole entry): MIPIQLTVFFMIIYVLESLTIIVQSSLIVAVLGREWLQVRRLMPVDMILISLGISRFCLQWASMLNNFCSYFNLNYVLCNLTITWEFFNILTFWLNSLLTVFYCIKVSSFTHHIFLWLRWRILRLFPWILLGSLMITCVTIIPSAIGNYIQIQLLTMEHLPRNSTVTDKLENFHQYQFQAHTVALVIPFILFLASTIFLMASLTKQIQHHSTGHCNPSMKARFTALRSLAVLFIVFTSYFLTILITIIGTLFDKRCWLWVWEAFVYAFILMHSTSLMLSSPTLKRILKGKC
Sequence of hT2R8 (Q9NYW2 whole entry): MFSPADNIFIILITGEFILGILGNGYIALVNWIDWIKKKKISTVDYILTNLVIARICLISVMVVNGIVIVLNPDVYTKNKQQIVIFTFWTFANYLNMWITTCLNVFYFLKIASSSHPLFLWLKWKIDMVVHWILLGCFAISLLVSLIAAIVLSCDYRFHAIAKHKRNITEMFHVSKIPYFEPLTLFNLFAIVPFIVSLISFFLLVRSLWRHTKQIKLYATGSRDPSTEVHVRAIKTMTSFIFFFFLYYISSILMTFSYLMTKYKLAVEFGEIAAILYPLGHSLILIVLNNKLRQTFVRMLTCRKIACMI
Sequence of hT2R61 (P59537 whole entry): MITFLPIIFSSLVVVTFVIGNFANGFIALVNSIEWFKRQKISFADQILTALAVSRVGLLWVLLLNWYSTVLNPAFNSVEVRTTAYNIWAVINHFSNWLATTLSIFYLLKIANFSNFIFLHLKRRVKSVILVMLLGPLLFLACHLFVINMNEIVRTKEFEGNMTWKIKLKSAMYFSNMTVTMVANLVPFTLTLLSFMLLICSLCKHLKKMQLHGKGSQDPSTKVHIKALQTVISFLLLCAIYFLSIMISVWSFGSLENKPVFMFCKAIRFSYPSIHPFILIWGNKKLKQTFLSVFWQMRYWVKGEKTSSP
Sequence of hT2R75 (P59540 whole entry): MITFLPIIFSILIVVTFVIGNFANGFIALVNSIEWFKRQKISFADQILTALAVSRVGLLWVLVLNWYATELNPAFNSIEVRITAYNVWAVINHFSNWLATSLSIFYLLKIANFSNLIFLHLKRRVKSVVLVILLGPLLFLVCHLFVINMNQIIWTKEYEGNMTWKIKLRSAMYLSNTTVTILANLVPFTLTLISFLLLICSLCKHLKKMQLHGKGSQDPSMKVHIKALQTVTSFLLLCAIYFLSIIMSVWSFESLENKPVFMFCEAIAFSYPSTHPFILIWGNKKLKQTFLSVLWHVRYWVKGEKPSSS
Sequence of hT2R4 (Q9NYW5 whole entry): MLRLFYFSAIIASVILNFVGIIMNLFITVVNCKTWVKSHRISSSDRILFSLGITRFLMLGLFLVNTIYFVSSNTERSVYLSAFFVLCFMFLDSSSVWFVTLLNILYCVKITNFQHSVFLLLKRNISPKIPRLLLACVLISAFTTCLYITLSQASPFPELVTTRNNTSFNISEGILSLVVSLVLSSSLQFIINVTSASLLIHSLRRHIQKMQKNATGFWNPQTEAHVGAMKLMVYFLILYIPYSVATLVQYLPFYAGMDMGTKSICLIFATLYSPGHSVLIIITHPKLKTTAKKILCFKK
Sequence of hT2R64 (P59538 whole entry): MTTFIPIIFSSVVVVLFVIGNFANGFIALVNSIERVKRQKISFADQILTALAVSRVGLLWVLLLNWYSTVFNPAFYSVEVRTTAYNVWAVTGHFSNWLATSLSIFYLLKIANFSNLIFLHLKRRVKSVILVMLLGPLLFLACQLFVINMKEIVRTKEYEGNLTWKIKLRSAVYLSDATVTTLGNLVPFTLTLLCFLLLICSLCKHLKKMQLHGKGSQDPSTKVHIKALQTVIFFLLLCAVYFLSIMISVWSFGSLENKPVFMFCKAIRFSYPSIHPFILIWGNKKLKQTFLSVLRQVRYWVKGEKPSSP
Sequence of hT2R3 (Q9NYW6 whole entry): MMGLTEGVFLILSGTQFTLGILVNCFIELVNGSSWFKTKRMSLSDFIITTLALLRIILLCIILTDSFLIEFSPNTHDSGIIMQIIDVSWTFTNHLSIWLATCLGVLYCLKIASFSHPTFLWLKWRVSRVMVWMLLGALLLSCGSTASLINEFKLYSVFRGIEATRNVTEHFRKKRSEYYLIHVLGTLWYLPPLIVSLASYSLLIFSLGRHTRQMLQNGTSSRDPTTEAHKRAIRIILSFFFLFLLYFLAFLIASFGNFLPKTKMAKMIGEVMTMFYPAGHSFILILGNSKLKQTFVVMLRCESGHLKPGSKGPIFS
Sequence of hT2R71 (P59536 whole entry): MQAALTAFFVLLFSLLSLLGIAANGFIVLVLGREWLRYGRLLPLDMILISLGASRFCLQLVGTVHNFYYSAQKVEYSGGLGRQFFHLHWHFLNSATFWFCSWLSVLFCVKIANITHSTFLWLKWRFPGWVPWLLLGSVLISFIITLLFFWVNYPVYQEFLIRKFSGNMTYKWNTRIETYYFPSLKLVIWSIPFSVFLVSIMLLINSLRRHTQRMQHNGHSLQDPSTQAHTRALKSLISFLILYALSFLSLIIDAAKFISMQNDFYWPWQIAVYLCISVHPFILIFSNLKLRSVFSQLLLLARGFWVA
Sequence of hT2R10 (Q9NYW0 whole entry): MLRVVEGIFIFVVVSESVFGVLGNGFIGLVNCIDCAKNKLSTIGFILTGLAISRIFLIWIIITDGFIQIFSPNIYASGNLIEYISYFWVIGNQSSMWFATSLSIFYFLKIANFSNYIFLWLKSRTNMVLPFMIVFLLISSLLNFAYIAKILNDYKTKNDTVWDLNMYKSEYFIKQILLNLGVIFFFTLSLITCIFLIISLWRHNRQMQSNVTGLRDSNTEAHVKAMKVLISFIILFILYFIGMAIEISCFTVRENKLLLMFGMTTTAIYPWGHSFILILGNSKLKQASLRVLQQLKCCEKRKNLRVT

COc1ccc(CN(Cc2ccccc2)S(=O)(=O)c2ccc(C(=O)O)cc2)cc1 [Example 5-1, 4-(N-benzyl-N-(4-methoxybenzyl)sulfamoyl)benzoic acid]
inhibition at 25 µM (hT2R8; [3]): 20 to 40% | inhibition at 25 µM (hT2R7; [4]): 40 to 60% | inhibition at 25 µM (hT2R51; [5]): 60 to 80% | inhibition at 25 µM (hT2R14 [1]; [6]): > 80% | melting point: 161 to 163 °C | inhibition at 25 µM (hT2R61; [7]): > 80% | inhibition at 25 µM (hT2R13; [8]): 20 to 40% | inhibition at 25 µM (hT2R5; [9]): 20 to 40% | inhibition at 25 µM (hT2R16; [10]): 40 to 60% | inhibition at 25 µM (hT2R75): 20 to 40% | IC50 (hT2R14 [2]): 220 nM | inhibition at 25 µM (hT2R9; [11]): 20 to 40% | inhibition at 25 µM (hT2R4; receptor activated to EC80 with the corresponding agonist, class symbols, read-out: screening result against bitter receptor 4): 20 to 40%

COc1ccc(CN(Cc2cccc(Cl)c2)S(=O)(=O)c2ccc(C(=O)O)cc2)cc1 [Example 5-14, 4-(N-(3-chlorobenzyl)-N-(4-methoxybenzyl)sulfamoyl)benzoic acid]
inhibition at 25 µM (hT2R71; receptor activated to EC80 with the corresponding agonist, read-out: screening result against bitter receptor 71): > 80% | inhibition at 25 µM (hT2R8; [3]): 20 to 40% | inhibition at 25 µM (hT2R7; [4]): 60 to 80% | screening result against bitter receptor 54 (hT2R54; [12]): ++++ (80% or greater inhibition = ++++) | inhibition at 25 µM (hT2R51; [5]): 60 to 80% | inhibition at 25 µM (hT2R14 [1]; [6]): > 80% | inhibition at 25 µM (hT2R61; [7]): > 80% | inhibition at 25 µM (hT2R13; [8]): 20 to 40% | screening result against bitter receptor 55 (hT2R55; [12]): ++++ (80% or greater inhibition = ++++) | inhibition at 25 µM (hT2R5; [9]): 60 to 80% | inhibition at 25 µM (hT2R16; [10]): 60 to 80% | screening result against bitter receptor 44 (hT2R44; [12]): +++ (60% to 80% inhibition = +++) | inhibition at 25 µM (hT2R75): 40 to 60% | screening result against bitter receptor 65 (hT2R65; [12]): ++++ (80% or greater inhibition = ++++) | screening result against bitter receptor 63 (hT2R63; [12]): ++++ (80% or greater inhibition = ++++) | screening result against bitter receptor 67 (hT2R67; [12]): ++ (40% to 60% inhibition = ++) | inhibition at 25 µM (hT2R10; HEK293, read-out: screening result against bitter receptor 10, compound at 25 μM, receptor activated to EC80 with the corresponding agonist): > 80% | inhibition at 25 µM (hT2R64; receptor activated to EC80 with the corresponding agonist, read-out: screening result against bitter receptor 64): > 80% | IC50 (hT2R14 [2]): 1880 nM | inhibition at 25 µM (hT2R9; [11]): 40 to 60% | inhibition at 25 µM (hT2R3; receptor activated to EC80 with the corresponding agonist, read-out: screening result against bitter receptor 3): > 80%

CC(C)Oc1ccc(CN(Cc2ccccc2)S(=O)(=O)c2ccc(C(=O)O)cc2)cc1 [Example 5-110, 4-(N-benzyl-N-(4-isopropoxybenzyl)sulfamoyl)benzoic acid]
inhibition at 25 µM (hT2R71; receptor activated to EC80 with agonist, read-out: inhibition of bitter receptor 71): 60 to 80% | inhibition at 25 µM (hT2R8; receptor activated to EC80 with agonist, read-out: inhibition of bitter receptor 8): 20 to 40% | inhibition at 25 µM (hT2R7; receptor activated to EC80 with agonist, read-out: inhibition of bitter receptor 7): 40 to 60% | inhibition of bitter receptor 54 (hT2R54; [13]): + (20% to 40% inhibition = +) | inhibition at 25 µM (hT2R51; receptor activated to EC80 with agonist, read-out: inhibition of bitter receptor 51): 40 to 60% | inhibition at 25 µM (hT2R14 [1]; receptor activated to EC80 with agonist, read-out: inhibition of bitter receptor 14): > 80% | inhibition at 25 µM (hT2R61; receptor activated to EC80 with agonist, read-out: inhibition of bitter receptor 61): > 80% | inhibition at 25 µM (hT2R13; receptor activated to EC80 with agonist, read-out: inhibition of bitter receptor 13): 20 to 40% | inhibition of bitter receptor 55 (hT2R55; [13]): ++++ (80% or greater inhibition = ++++) | inhibition at 25 µM (hT2R5; receptor activated to EC80 with agonist, read-out: inhibition of bitter receptor 5): 20 to 40% | inhibition at 25 µM (hT2R16; receptor activated to EC80 with agonist, read-out: inhibition of bitter receptor 16): 20 to 40% | inhibition of bitter receptor 44 (hT2R44; [13]): +++ (60% to 80% inhibition = +++) | inhibition of bitter receptor 65 (hT2R65; [13]): +++ (60% to 80% inhibition = +++) | inhibition of bitter receptor 63 (hT2R63; [13]): +++ (60% to 80% inhibition = +++) | inhibition of bitter receptor 67 (hT2R67; [13]): + (20% to 40% inhibition = +) | inhibition at 25 µM (hT2R10; HEK293, read-out: inhibition of bitter receptor 10, compound at 25 μM, receptor activated to EC80 with agonist): 40 to 60% | inhibition at 25 µM (hT2R64; receptor activated to EC80 with agonist, read-out: inhibition of bitter receptor 64): 60 to 80% | inhibition at 25 µM (hT2R9; receptor activated to EC80 with agonist, read-out: inhibition of bitter receptor 9): 20 to 40% | inhibition at 25 µM (hT2R3; receptor activated to EC80 with agonist, read-out: inhibition of bitter receptor 3): 40 to 60% | inhibition at 25 µM (hT2R4; receptor activated to EC80 with agonist, read-out: inhibition of bitter receptor 4): 60 to 80%
